Source: ChEMBL document CHEMBL1129907, “The SAR of UK-78,282: A novel blocker of human T cell Kv1.3 potassium channels” (Bioorg Med Chem Lett, 1997)

System: T-cell line
Test: In vitro inhibition of Rb efflux in human T-cells; 1-10
Format: functional, cell-based

SMILES | IC50 [nM]
CCCCCCC[N+](CC)(CC)CCCCc1ccc(Cl)cc1 [CLOFILIUM] | 1000
CN(CCOc1ccc(NS(C)(=O)=O)cc1)CCc1ccc(NS(C)(=O)=O)cc1 [DOFETILIDE] | 1000
COc1ccc(Cl)cc1C(=O)NCCc1ccc(S(=O)(=O)NC(=O)NC2CCCCC2)cc1 [GLYBURIDE] | 1000
CC(C)NCC(O)c1ccc(NS(C)(=O)=O)cc1 (stereo not given) [SOTALOL] | 1000
CC[N+](CC)(CC)CC [TETRYLAMMONIUM] | 1000

Target: Potassium voltage-gated channel subfamily A member 3 (Homo sapiens, UniProt P22001)
Sequence (P22001 whole entry): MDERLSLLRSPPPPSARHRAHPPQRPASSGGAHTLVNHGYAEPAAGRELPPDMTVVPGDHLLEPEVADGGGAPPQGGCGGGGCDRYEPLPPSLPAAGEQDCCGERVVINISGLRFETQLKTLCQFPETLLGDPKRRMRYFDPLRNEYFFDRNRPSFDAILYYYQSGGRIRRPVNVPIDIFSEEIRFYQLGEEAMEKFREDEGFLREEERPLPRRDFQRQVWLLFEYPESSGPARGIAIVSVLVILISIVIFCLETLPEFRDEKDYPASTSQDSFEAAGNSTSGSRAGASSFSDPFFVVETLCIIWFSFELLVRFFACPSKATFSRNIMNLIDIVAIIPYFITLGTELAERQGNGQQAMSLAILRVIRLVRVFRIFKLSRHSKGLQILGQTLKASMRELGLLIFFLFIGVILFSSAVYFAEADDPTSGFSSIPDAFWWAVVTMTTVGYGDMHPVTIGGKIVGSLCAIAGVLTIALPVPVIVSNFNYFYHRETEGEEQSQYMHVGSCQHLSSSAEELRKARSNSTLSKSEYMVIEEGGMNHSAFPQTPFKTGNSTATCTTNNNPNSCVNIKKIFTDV
Test: In vitro inhibition of human T-cells voltage-gated potassium channel subunit Kv1.3
Format: cell-based, T-cell

SMILES | IC50 [nM]
COc1ccc(CCCN2CCC(COC(c3ccccc3)c3ccccc3)CC2)cc1 | 200

System: T-cell line
Test: In vitro inhibitory potency against human T-cells Rb efflux
Format: functional, cell-based

SMILES | IC50 [nM]
COc1ccc(CCC[n+]2ccc(COC(c3ccccc3)c3ccccc3)cc2)cc1 | > 20000
COc1ccc(CCCN2CCC(CNC(c3ccccc3)c3ccccc3)CC2)cc1 | 2800
COc1ccc(CCCN2CCC(COC(c3ccc(Br)cc3)c3ccc(Br)cc3)CC2)cc1 | 3200
COc1ccc(CCCN2C3CCC2CC(COC(c2ccccc2)c2ccccc2)C3)cc1 (stereo not given) | 400
CCN1CCC(COC(c2ccccc2)c2ccccc2)CC1 | > 20000
Clc1ccc(CCCN2CCC(COC(c3ccccc3)c3ccccc3)CC2)cc1Cl | 2200
c1ccc(C(OCC2CCN(CC3CCc4ccccc4C3)CC2)c2ccccc2)cc1 (stereo not given) | 5600
CCCCCN1CCC(COC(c2ccccc2)c2ccccc2)CC1 | 10800
COc1cccc(CCCN2CCC(COC(c3ccccc3)c3ccccc3)CC2)c1 | 1500
COc1ccc(CCCN2CCC(CCC(c3ccccc3)c3ccccc3)CC2)cc1 | 200
COc1ccc(CCCN2CCC(C(O)CC(c3ccccc3)c3ccccc3)CC2)cc1 (stereo not given) | 1500
COc1ccc(CCCN2CCC(COCc3ccc(Cl)c(Cl)c3)CC2)cc1 | 200
COc1ccc(CC2(CN3CCC(COC(c4ccccc4)c4ccccc4)CC3)CCCCC2)cc1 | 3400
C(#Cc1ccccc1)CN1CCC(COC(c2ccccc2)c2ccccc2)CC1 | > 20000
CCCN1CCC(COC(c2ccccc2)c2ccccc2)CC1 | 17800
COc1ccc(CCCN2CCC(=CCC(c3ccccc3)c3ccccc3)CC2)cc1 | 400
COc1ccc(CCCN2CCC(COCc3ccccc3)CC2)cc1 | 2100
Clc1ccccc1CCCN1CCC(COC(c2ccccc2)c2ccccc2)CC1 | 800
COc1ccc(CCCN2CCC(COCc3ccccn3)CC2)cc1 | 5900
c1ccc(CCCN2CCC(COC(c3ccccc3)c3ccccc3)CC2)cc1 | 700

SMILES | IC50 [nM]
COc1ccc(CCN2CCC(COC(c3ccccc3)c3ccccc3)CC2)cc1 | 2900
COc1ccc(CCCN2CCC(COC(c3ccc(Cl)cc3)c3ccc(Cl)cc3)CC2)cc1 | 1100
CCCCCCCCCN1CCC(COC(c2ccccc2)c2ccccc2)CC1 | 700
COc1ccc(CCCN2CCN(CCC(c3ccccc3)c3ccccc3)CC2)cc1 | 2700
CN1CCC(COC(c2ccccc2)c2ccccc2)CC1 | > 20000
CCCCCCCCN1CCC(COC(c2ccccc2)c2ccccc2)CC1 | 700
COc1ccc(/C=C/CN2CCC(COC(c3ccccc3)c3ccccc3)CC2)cc1 | 4300
COc1ccc(CCCN2CCC(CO)CC2)cc1 | > 20000
CCCCCCCCCCN1CCC(COC(c2ccccc2)c2ccccc2)CC1 | 2600
COc1ccc(CCCN2CCC(COCc3ccc(Cl)cc3)CC2)cc1 | 500
Clc1ccc(CCCN2CCC(COC(c3ccccc3)c3ccccc3)CC2)cc1 | 500
COc1ccccc1CCCN1CCC(COC(c2ccccc2)c2ccccc2)CC1 | 2400
COc1ccc(CCCN2CCC(COC(c3ccccc3)c3ccccc3)CC2)cc1 | 400
CCCCN1CCC(COC(c2ccccc2)c2ccccc2)CC1 | 14000
Cc1ccc(CCCN2CCC(COC(c3ccccc3)c3ccccc3)CC2)cc1 | 200
COc1ccc(CCCN2CCC(COC(c3ccccc3)c3ccc(Cl)cc3)CC2)cc1 (stereo not given) | 200
COc1ccc(CCCN2CCC(COCC3CCCCC3)CC2)cc1 | 3000
CCCCCCCN1CCC(COC(c2ccccc2)c2ccccc2)CC1 | 500
CCCCCCN1CCC(COC(c2ccccc2)c2ccccc2)CC1 | 5500
